Data from patent US10590109B2, “Heterocyclic compounds used as FGFR inhibitors” (Nanjing InnoCare Pharma Tech Co., Ltd., priority 2016, dated 2020).

Biological target: human recombinant FGFR1 catalytic structural domain protein (Homo sapiens (Human), UniProt P11362)
Experiment: FGFR1 activity inhibition test (HTRF kinase assay)
Format: biochemical
Conditions: 40 μM ATP
Protocol: FGFR1 Activity Inhibition Test
The influence of the compound according to the present invention on the activity of fibroblast growth factor receptor 1 (FGFR1) was evaluated by an in vitro kinase assay experiment.
The experimental method is summarized as follows:
The in vitro activity of FGFR1 was determined by assaying the phosphorylation level of the substrate in the kinase reaction, by means of an HTRF kinase assay kit.
If the IC50 value of the compound was very low, the initial concentration of the compound could be reduced.
After 60 min, the enzyme reaction was terminated by EDTA in the assay solution, and the phosphorylated products were identified by both the Eu^3+ labeled cage-shaped antibody (donor) and the streptavidin labeled XL665 antibody (receptor) at the same time. […] The inhibition percentage of the compound against FGFR1 activity could be calculated with the following formula: Inhibition percentage=100−100*(signalcompound−signalnegative control)/(signalpositive control−signalnegative control)
The IC50 value of the compound was calculated by the following formula, from 10 concentration points, with XLfit (ID Business Solutions Ltd., UK): Y=Bottom+(Top−Bottom)/(1+10^((Log IC50−X)*slope factor))
Where, Y is the inhibition percentage, Bottom is the bottom plateau of the curve (the bottom plateau of the S-type curve), Top is the top plateau of the curve (the top plateau of the S-type curve), and X is the log value of the compound concentration to be measured.

human recombinant FGFR1 catalytic structural domain protein, sequence (P11362 other isoform, or with tags, fused parts or gaps): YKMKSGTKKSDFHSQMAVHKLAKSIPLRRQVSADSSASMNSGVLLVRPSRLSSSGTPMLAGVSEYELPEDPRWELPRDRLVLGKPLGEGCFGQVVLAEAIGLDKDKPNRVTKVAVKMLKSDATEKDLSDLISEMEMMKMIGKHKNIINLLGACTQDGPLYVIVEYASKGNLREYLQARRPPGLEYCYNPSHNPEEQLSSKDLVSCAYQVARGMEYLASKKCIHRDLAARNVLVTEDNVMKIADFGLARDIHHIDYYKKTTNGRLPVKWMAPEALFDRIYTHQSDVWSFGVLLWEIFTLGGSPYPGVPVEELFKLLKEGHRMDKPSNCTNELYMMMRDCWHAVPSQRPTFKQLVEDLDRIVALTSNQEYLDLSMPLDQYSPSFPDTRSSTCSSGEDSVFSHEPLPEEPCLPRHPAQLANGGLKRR

COC[C@@H](C)Oc1cc(NC(=O)N(C)c2ccc(CN3CCOCC3=O)c(C=O)n2)ncc1C#N [Compound 14, (R)-3-(5-cyano-4-((1-methoxyprop-2-yl)oxo)pyrid-2-yl)-1-(6-formyl-5-((3-carbonylmorpholino)methyl)pyrid-2-yl)-1-methylurea]
IC50: > 1000 nM
